Publication PMC10218234, “Design, Synthesis and Antitumor Activity of 1H-indazole-3-amine Derivatives” (International Journal of Molecular Sciences, 2023)
Read-outs that look alike come from different tables or passages of the source.

Assays:
[1] = test system: A549 cells; assay: MTT anti-proliferative assay, A549; type: cell-based; details: Homo sapiens, read-out: IC50 ± SD, A549
Procedure: (§1) The antiproliferative activity of the target indazole derivatives was evaluated against a panel of human cancer cell lines (human chronic myeloid leukemia cell lines K562; human lung cancer cell lines A549; human prostate cancer cell lines PC-3; human hepatoma cell lines HepG-2) in vitro, and human embryonic kidney cell lines HEK-293 were used to evaluate the cytotoxicity of a normal cell with high activity derivatives by MTT assay. Moreover, 5-fluorouracil (5-Fu), a broad-spectrum drug antitumor drug with therapeutic effects on various cancers, was used as a positive control.
(§2) Lung (A549), chronic myeloid leukemia (K562), prostate (PC3), and live (Hep-G2) cells were purchased from the Cell Bank of the Chinese Academy of Sciences (Kunming, China). A549, K562, and PC-3 cells were cultured in RPMI-1640 medium and the liver cells Hep-G2 were cultured in MEM medium. All mediums were supplemented with 10% FBS, 100 μg/mL penicillin and 100 μg/mL streptomycin. All cells were cultivated in a 5% CO2 incubator at 37 °C.
(§3) To investigate the anticancer activity of indazole derivatives, A549, K562, PC3, and Hep-G2 cells were treated with targets compounds respectively for 48 h in a range of concentrations (from 0.625 to 10 μM) and subjected to a proliferation assay using the MTT assay. Exponentially growing cells were seeded at a density of 5000 cells per well in 96-well plates containing 100 μL of fresh growth medium. After allowing the cells to attach for 24 h, target compounds were added. After incubation for 48 h, viable cells were stained with MTT (0.5 mg/mL) for 4 h, and the produced formazan crystals were dissolved with 150 µL of dimethyl sulfoxide. Absorbance was measured at 490 nm using an automated microplate reader (Tecan, Infinite M200 Pro, Männedorf, Switzerland). The relative cell viability was calculated according to the following equation: Cell viability%=experimental OD value/control OD value×100%Cell inhibition%=control OD value−experimental OD value/control OD value×100%
(§4) Cell inhibition%=control OD value−experimental OD value/control OD value×100%

[2] = test system: K562 cells; assay: MTT anti-proliferative assay, K562; type: cell-based; details: Homo sapiens, read-out: IC50 ± SD, K562
Procedure: as §1, §2, §3, §4

[3] = test system: PC-3 cells; assay: MTT anti-proliferative assay, PC-3; type: cell-based; details: Homo sapiens, PC-3, 48 h
Procedure: as §1, §2
as §3, with “Exponentially” for “To investigate the anticancer activity of indazole derivatives, A549, K562, PC3, and Hep-G2 cells were treated with targets compounds respectively for 48 h in a range of concentrations (from 0.625 to 10 μM) and subjected to a proliferation assay using the MTT assay. Exponentially”
as §4

[4] = test system: Hep-G2 cells; assay: MTT anti-proliferative assay, Hep-G2; type: cell-based; details: Homo sapiens, HepG2, 48 h, read-out: IC50 ± SD, Hep-G2
Procedure: as §1, §2, §3, §4

[5] = Table 2, read-out: IC50 ± SD, PC-3

SMILES | IC50 ([1]; Table 2, 48 h) [µM] | IC50 ([2]; Table 2, 48 h) [µM] | melting point [°C] | IC50 [3, 5] [µM] | IC50 ([4]; Table 2, 48 h) [µM] | IC50 ([1]; Table 1, 48 h) [µM] | IC50 ([2]; Table 1, 48 h) [µM] | IC50 ([3]; Table 1, read-out: IC50 ± SD, PC-3) [µM] | IC50 ([4]; Table 1, 48 h) [µM]
COc1ccc(-c2ccc3[nH]nc(NC(=O)CN4CCN(c5ccc(C(F)(F)F)cc5)CC4)c3c2)cc1 [6d] | 17.6 ± 4.11 | 18.2 ± 2.91 | 187 to 189 | 17.6 ± 1.4 | > 50 |  |  |  | 
COc1ccc(-c2ccc3[nH]nc(NC(=O)CN4CCN(Cc5ccc(Cl)cc5)CC4)c3c2)cc1 [6e] | 12.8 ± 0.78 | 8.85 ± 0.26 | 140 to 141 | 7.15 ± 0.14 | > 50 |  |  |  | 
O=C(CN1CCN(c2ccc(Cl)c(Cl)c2)CC1)Nc1n[nH]c2ccc(-c3cc(F)cc(F)c3)cc12 [6f] | > 50 | 11.9 ± 0.85 |  | 41.7 ± 27.9 | 9.56 ± 0.84 |  |  |  | 
O=C(CN1CCN(c2ccc(C(F)(F)F)cc2)CC1)Nc1n[nH]c2ccc(-c3cc(F)cc(F)c3)cc12 [6g] | 15.8 ± 2.98 | 6.61 ± 0.38 | 170 to 171 | 6.81 ± 1.09 | 2.35 ± 0.96 |  |  |  | 
O=C(CN1CCN(c2ccc(F)cc2F)CC1)Nc1n[nH]c2ccc(-c3cc(F)cc(F)c3)cc12 [6h] | 15.1 ± 1.36 | 13.2 ± 1.75 |  | 8.63 ± 0.57 | 2.75 ± 0.78 |  |  |  | 
O=C(CN1CCN(c2ccc(Br)cc2)CC1)Nc1n[nH]c2ccc(-c3cc(F)cc(F)c3)cc12 [6i] | 28.6 ± 2.52 | 13.2 ± 1.44 | 184 to 186 | 12.8 ± 2.95 | 2.58 ± 0.42 |  |  |  | 
O=C(CN1CCN(c2ccc(Cl)cc2)CC1)Nc1n[nH]c2ccc(-c3cc(F)cc(F)c3)cc12 [6j] | 20.3 ± 1.24 | 7.78 ± 0.1 | 179 to 181 | 7.58 ± 1.01 | 3.87 ± 0.47 |  |  |  | 
O=C(CN1CCN(c2ccccc2)CC1)Nc1n[nH]c2ccc(-c3cc(F)cc(F)c3)cc12 [6k] | 7.83 ± 1.06 | 11.2 ± 0.56 | 180 to 182 | 4.25 ± 0.13 | 1.61 ± 0.28 |  |  |  | 
O=C(CN1CCN(c2ccncc2)CC1)Nc1n[nH]c2ccc(-c3cc(F)cc(F)c3)cc12 [6l] | 12.9 ± 0.21 | 14 ± 0.49 | 200 to 201 | 2.89 ± 0.16 | 7.65 ± 3.34 |  |  |  | 
O=C(CN1CCN(c2ccc(Cl)c(Cl)c2)CC1)Nc1n[nH]c2ccc(-c3ccc(Cl)c(F)c3)cc12 [6m] | 22.6 ± 6.53 | 17.9 ± 3.14 |  | 19.9 ± 2.71 | 1.51 ± 0.25 |  |  |  | 
COc1ccc(N2CCN(CC(=O)Nc3n[nH]c4ccc(-c5ccc(Cl)c(F)c5)cc34)CC2)cc1 [6n] | 18.7 ± 3.1 | 13.3 ± 1.4 | 174 to 176 | 34.8 ± 4.37 | 4.76 ± 0.63 |  |  |  | 
O=C(CN1CCN(c2ccccc2Cl)CC1)Nc1n[nH]c2ccc(-c3ccc(Cl)c(F)c3)cc12 [6p] | 13.6 ± 0.53 | > 50 | 163 to 165 | 32.1 ± 2.26 | 2.38 ± 0.37 |  |  |  | 
O=C(CN1CCN(c2ccc(F)cc2F)CC1)Nc1n[nH]c2ccc(-c3ccc(Cl)c(Cl)c3)cc12 [6q] | 12.8 ± 2.66 | 5.61 ± 1.14 | 160 to 162 | 10.7 ± 1.66 | 2.7 ± 0.47 |  |  |  | 
O=C(CN1CCN(c2ccc(Br)cc2)CC1)Nc1n[nH]c2ccc(-c3ccc(Cl)c(Cl)c3)cc12 [6r] | 15.8 ± 1.38 | 10 ± 0.94 |  | 27.9 ± 26.1 | > 50 |  |  |  | 
O=C(CN1CCN(c2ccc(Cl)cc2)CC1)Nc1n[nH]c2ccc(-c3ccc(Cl)c(Cl)c3)cc12 [6s] | 20.4 ± 8.08 | 10.8 ± 0.68 | 179 to 182 | 20.3 ± 4.71 | 2.92 ± 1.41 |  |  |  | 
N#Cc1ccc(N2CCN(CC(=O)Nc3n[nH]c4ccc(-c5ccc(Cl)c(Cl)c5)cc34)CC2)cc1 [6t] | 40.9 ± 6.54 | 11.1 ± 0.69 | 194 to 197 | 19 ± 0.58 | 1.98 ± 0.35 |  |  |  | 
COc1ccc(SCC(=O)Nc2n[nH]c3ccc(-c4cccc(F)c4)cc23)cc1 [compound 5a] |  |  |  |  |  | 4.66 ± 0.45 | 9.32 ± 0.59 | 15.5 ± 1.33 | 12.7 ± 1.31
O=C(CN1CCN(c2ccc(Cl)c(Cl)c2)CC1)Nc1n[nH]c2ccc(-c3cccc(F)c3)cc12 [compound 6a] | 8.21 ± 0.56 | 5.19 ± 0.29 |  | 6.12 ± 0.1 | 5.62 ± 1.76 |  |  |  | 
